For 11 compounds, pest or weed control results are on record in patent publication US10206394B2, “Herbicidal compounds” (Syngenta Participations AG, priority 2014, dated 2019).

SMILES strings stand for the structures. Where two headings read alike, the source gives them in different places.

Holding throughout (assay): Glasshouse assay for herbicidal activity (pre- and post-emergence), percentage phytotoxicity
Assay type in all cases: in vivo

Test [1] relates to Alopecurus myosuroides (ALOMY). The conditions noted are these: Alopecurus myosuroides. In short, it runs like this:
(§1)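 Visual phytotoxicity score, 0% = undamaged to 100% = total kill, read 20 days after treatment for PRE and 15 days for POST. Pots of standard soil; treatment at day 1 (PRE) or roughly day 12 (POST). Glasshouse: 16 h photoperiod, 65% RH, 24/18 or 20/16 °C by climate type.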

Another test relates to Avena fatua (AVEFA). The conditions noted are these: Avena fatua. Summed up:
as §1

A further test deals with Lolium perenne (LOLPE). The conditions noted are these: Lolium perenne. Summed up: as §1
The subject of test [2] is Echinochloa crus-galli (ECHCG). The note with it: Echinochloa crus-galli. Summed up: as §1
The mark [3] stands for this setting: post-emergence, 360 h, 250 g/ha, post-emergence, 15 DAA, visual assessment (100%=total damage, 0%=no damage), read-out: Post-emergence herbicidal activity (percentage phytotoxicity) ALOMY POST.
Where [4] appears, read: pre-emergence, 480 h, 250 g/ha, pre-emergence, 20 DAA, visual assessment (100%=total damage, 0%=no damage), read-out: Pre-emergence herbicidal activity (percentage phytotoxicity) ALOMY PRE.
Setting [5] is: post-emergence, 360 h, 250 g/ha, post-emergence, 15 DAA, visual assessment (100%=total damage, 0%=no damage), read-out: Post-emergence herbicidal activity (percentage phytotoxicity) AVEFA POST.
Where [6] appears, read: pre-emergence, 480 h, 250 g/ha, pre-emergence, 20 DAA, visual assessment (100%=total damage, 0%=no damage), read-out: Pre-emergence herbicidal activity (percentage phytotoxicity) AVEFA PRE.
Where [7] appears, read: post-emergence, 360 h, 250 g/ha, post-emergence, 15 DAA, visual assessment (100%=total damage, 0%=no damage), read-out: Post-emergence herbicidal activity (percentage phytotoxicity) LOLPE POST.
[8] abbreviates: pre-emergence, 480 h, 250 g/ha, pre-emergence, 20 DAA, visual assessment (100%=total damage, 0%=no damage), read-out: Pre-emergence herbicidal activity (percentage phytotoxicity) LOLPE PRE.
The mark [9] stands for this setting: post-emergence, 360 h, 250 g/ha, post-emergence, 15 DAA, visual assessment (100%=total damage, 0%=no damage), read-out: Post-emergence herbicidal activity (percentage phytotoxicity) ECHCG POST.
The mark [10] stands for this setting: pre-emergence, 480 h, 250 g/ha, pre-emergence, 20 DAA, visual assessment (100%=total damage, 0%=no damage), read-out: Pre-emergence herbicidal activity (percentage phytotoxicity) ECHCG PRE.
[11] abbreviates: post-emergence, 360 h, POST-emergence, rate 250 g/ha, visual score 15 DAA (100%=total damage, 0%=no damage), read-out: Post-emergence herbicidal activity (percentage phytotoxicity) ALOMY POST.
The mark [12] stands for this setting: pre-emergence, 480 h, PRE-emergence, rate 250 g/ha, visual score 20 DAA (100%=total damage, 0%=no damage), read-out: Pre-emergence herbicidal activity (percentage phytotoxicity) ALOMY PRE.
[13] abbreviates: post-emergence, 360 h, POST-emergence, rate 250 g/ha, visual score 15 DAA (100%=total damage, 0%=no damage), read-out: Post-emergence herbicidal activity (percentage phytotoxicity) AVEFA POST.
Where [14] appears, read: pre-emergence, 480 h, PRE-emergence, rate 250 g/ha, visual score 20 DAA (100%=total damage, 0%=no damage), read-out: Pre-emergence herbicidal activity (percentage phytotoxicity) AVEFA PRE.
Where [15] appears, read: post-emergence, 360 h, POST-emergence, rate 250 g/ha, visual score 15 DAA (100%=total damage, 0%=no damage), read-out: Post-emergence herbicidal activity (percentage phytotoxicity) LOLPE POST.
Where [16] appears, read: pre-emergence, 480 h, PRE-emergence, rate 250 g/ha, visual score 20 DAA (100%=total damage, 0%=no damage), read-out: Pre-emergence herbicidal activity (percentage phytotoxicity) LOLPE PRE.
[17] abbreviates: post-emergence, 360 h, POST-emergence, rate 250 g/ha, visual score 15 DAA (100%=total damage, 0%=no damage), read-out: Post-emergence herbicidal activity (percentage phytotoxicity) ECHCG POST.
[18] abbreviates: pre-emergence, 480 h, PRE-emergence, rate 250 g/ha, visual score 20 DAA (100%=total damage, 0%=no damage), read-out: Pre-emergence herbicidal activity (percentage phytotoxicity) ECHCG PRE.
Where [19] appears, read: post-emergence, 360 h, Rate 250 g/ha, post-emergence, visual assessment 15 DAA, 100%=total damage, 0%=no damage, read-out: Post-emergence herbicidal activity (percentage phytotoxicity) ALOMY POST.
[20] abbreviates: pre-emergence, 480 h, Rate 250 g/ha, pre-emergence, visual assessment 20 DAA, 100%=total damage, 0%=no damage, read-out: Pre-emergence herbicidal activity (percentage phytotoxicity) ALOMY PRE.
The mark [21] stands for this setting: post-emergence, 360 h, Rate 250 g/ha, post-emergence, visual assessment 15 DAA, 100%=total damage, 0%=no damage, read-out: Post-emergence herbicidal activity (percentage phytotoxicity) AVEFA POST.
Setting [22] is: pre-emergence, 480 h, Rate 250 g/ha, pre-emergence, visual assessment 20 DAA, 100%=total damage, 0%=no damage, read-out: Pre-emergence herbicidal activity (percentage phytotoxicity) AVEFA PRE.
The mark [23] stands for this setting: post-emergence, 360 h, Rate 250 g/ha, post-emergence, visual assessment 15 DAA, 100%=total damage, 0%=no damage, read-out: Post-emergence herbicidal activity (percentage phytotoxicity) LOLPE POST.
Setting [24] is: pre-emergence, 480 h, Rate 250 g/ha, pre-emergence, visual assessment 20 DAA, 100%=total damage, 0%=no damage, read-out: Pre-emergence herbicidal activity (percentage phytotoxicity) LOLPE PRE.
[25] abbreviates: post-emergence, 360 h, Rate 250 g/ha, post-emergence, visual assessment 15 DAA, 100%=total damage, 0%=no damage, read-out: Post-emergence herbicidal activity (percentage phytotoxicity) ECHCG POST.
Where [26] appears, read: pre-emergence, 480 h, Rate 250 g/ha, pre-emergence, visual assessment 20 DAA, 100%=total damage, 0%=no damage, read-out: Pre-emergence herbicidal activity (percentage phytotoxicity) ECHCG PRE.

On to `Cc1cc(C)c(C2C(=O)CC(CC(=O)N[C@@H]3C[C@@H]3F)C2=O)c(C)c1` (stereo partly shown) [Compound B81], for which the pest or weed control at 250 g/ha in test [1] (setting [3]) was 80%; in test [1] (setting [4]), 70%; in the test on Avena fatua (AVEFA) (setting [5]), 90%; in the test on Avena fatua (AVEFA) (setting [6]), 0%; in the test with Lolium perenne (LOLPE) (setting [7]), 90%; in the test with Lolium perenne (LOLPE) (setting [8]) it was 90%. Also, the pest or weed control at 250 g/ha in test [2] (setting [9]) was found to be 80%; in test [2] (setting [10]), 90%.
For `Cc1cc(-c2ncc(C#N)cn2)cc(C)c1C1C(=O)CC(CC(=O)NC(C)(C)C)C1=O` (stereo not shown) [Compound B270], the pest or weed control at 250 g/ha turned out to be 100% in test [1] (setting [11]); 100% in test [1] (setting [12]); 100% with Avena fatua (AVEFA) (setting [13]); 90% with Avena fatua (AVEFA) (setting [14]); 90% in the test with Lolium perenne (LOLPE) (setting [15]); 100% in the test on Lolium perenne (LOLPE) (setting [16]). Also, the pest or weed control at 250 g/ha in test [2] (setting [17]) and in test [2] (setting [18]) was 100% throughout.
Consider `Cc1cc(-c2ccc(F)cn2)cc(C)c1C1C(=O)CC(CC(=O)NC/C=C/Cl)C1=O` (stereo not shown) [Compound B400], for which the pest or weed control at 250 g/ha came out at 100% in test [1] (setting [19]); 100% in test [1] (setting [20]); 100% with Avena fatua (AVEFA) (setting [21]); 100% with Avena fatua (AVEFA) (setting [22]); 90% in the test with Lolium perenne (LOLPE) (setting [23]); 100% in the test on Lolium perenne (LOLPE) (setting [24]). The pest or weed control at 250 g/ha in test [2] (setting [25]) and in test [2] (setting [26]) was 100% throughout.
As to `COc1cccc(CNC(=O)CC2CC(=O)C(c3c(C)cc(-c4ncc(Cl)cc4F)cc3C)C2=O)c1` (stereo not shown) [Compound B131], the pest or weed control at 250 g/ha in test [1] (setting [3]) amounted to 90%; in test [1] (setting [4]), 80%; in the test on Avena fatua (AVEFA) (setting [5]), 100%; in the test on Avena fatua (AVEFA) (setting [6]), 30%; in the test on Lolium perenne (LOLPE) (setting [7]), 90%; in the test on Lolium perenne (LOLPE) (setting [8]) it was 80%. Besides, the pest or weed control at 250 g/ha in test [2] (setting [9]) worked out at 100%; in test [2] (setting [10]), 90%.
Take `C=C(C)CNC(=O)CC1CC(=O)C(c2c(C)cc(-c3ncc(Cl)cn3)cc2C)C1=O` (stereo not shown) [Compound B341]: the pest or weed control at 250 g/ha in test [1] (setting [19]) turned out to be 100%; in test [1] (setting [20]) it was 100%; in the test on Avena fatua (AVEFA) (setting [21]), 100%; in the test on Avena fatua (AVEFA) (setting [22]), 80%; with Lolium perenne (LOLPE) (setting [23]) it was 100%; in the test on Lolium perenne (LOLPE) (setting [24]) it was 80%. Besides, the pest or weed control at 250 g/ha in test [2] (setting [25]) and in test [2] (setting [26]) was 100% each time.
On to `C=Cc1cc(-c2ccc(Cl)cn2)cc(C)c1C1C(=O)CC(CC(=O)NC(C)(C)C)C1=O` (stereo not shown) [Compound B376], for which the pest or weed control at 250 g/ha in test [1] (setting [19]) was determined as 90%; in test [1] (setting [20]), 30%; in the test on Avena fatua (AVEFA) (setting [21]), 90%; in the test on Avena fatua (AVEFA) (setting [22]) it was 80%; in the test with Lolium perenne (LOLPE) (setting [23]) it was 100%; in the test with Lolium perenne (LOLPE) (setting [24]) it was 60%. Also, the pest or weed control at 250 g/ha was found to be 100% in test [2] (setting [25]) and 60% in test [2] (setting [26]).
In the case of `Cc1cc(-c2ccc(Br)cn2)cc(C)c1C1C(=O)CC(CC(=O)N2CCOCC2)C1=O` (stereo not shown) [Compound B299], the pest or weed control at 250 g/ha was 90% in test [1] (setting [11]); 90% in test [1] (setting [12]); 90% in the test with Avena fatua (AVEFA) (setting [13]); 90% in the test with Avena fatua (AVEFA) (setting [14]); 100% in the test with Lolium perenne (LOLPE) (setting [15]); 100% with Lolium perenne (LOLPE) (setting [16]). The pest or weed control at 250 g/ha in test [2] (setting [17]) and in test [2] (setting [18]) was 100% in each case.
On to `Cc1cc(-c2ncc(F)cn2)cc(C)c1C1C(=O)CC(CC(=O)N(C)C)C1=O` (stereo not shown) [Compound B279], for which the pest or weed control at 250 g/ha (in test [1] (setting [11]); in test [1] (setting [12]); in the test with Avena fatua (AVEFA) (setting [13]); with Avena fatua (AVEFA) (setting [14]); in the test on Lolium perenne (LOLPE) (setting [15]); with Lolium perenne (LOLPE) (setting [16])) was 100% throughout. The pest or weed control at 250 g/ha in test [2] (setting [17]) and in test [2] (setting [18]) was 100% in each case.
In the case of `Cc1cc(-c2ccc(Cl)cn2)cc(C)c1C1C(=O)CC(CC(=O)NCc2cccc(Br)c2)C1=O` (stereo not shown) [Compound B359], the pest or weed control at 250 g/ha in test [1] (setting [19]) is 90%; in test [1] (setting [20]), 90%; in the test on Avena fatua (AVEFA) (setting [21]), 100%; in the test with Avena fatua (AVEFA) (setting [22]), 70%; with Lolium perenne (LOLPE) (setting [23]), 90%; in the test with Lolium perenne (LOLPE) (setting [24]), 90%. The figures for the pest or weed control at 250 g/ha in test [2] (setting [25]) and in test [2] (setting [26]) were 100% and 80%, respectively.
As for `Cc1cc(C)c(C2C(=O)CC(CC(=O)NC3CC3C(F)(F)F)C2=O)c(C)c1` (stereo not shown) [Compound B97], the pest or weed control at 250 g/ha in test [1] (setting [3]) worked out at 70%; in test [1] (setting [4]), 80%; in the test with Avena fatua (AVEFA) (setting [5]) it was 50%; with Avena fatua (AVEFA) (setting [6]), 0%; in the test on Lolium perenne (LOLPE) (setting [7]), 70%; in the test with Lolium perenne (LOLPE) (setting [8]), 80%. Besides, the pest or weed control at 250 g/ha in test [2] (setting [9]) came out at 80%; in test [2] (setting [10]) it was 90%.
On to `CCNC(=O)CC1CC(=O)C(c2c(C)cc(-n3cc(Cl)cn3)cc2C)C1=O` (stereo not shown) [Compound B307], for which the pest or weed control at 250 g/ha in test [1] (setting [11]) turned out to be 90%; in test [1] (setting [12]), 100%; with Avena fatua (AVEFA) (setting [13]) it was 100%; with Avena fatua (AVEFA) (setting [14]), 100%; with Lolium perenne (LOLPE) (setting [15]) it was 90%; in the test on Lolium perenne (LOLPE) (setting [16]), 100%. In addition, the pest or weed control at 250 g/ha in test [2] (setting [17]) and in test [2] (setting [18]) was 100% throughout.
